Values after ≈ are worked out from the molar mass of the structure shown. Where two headings read alike, the source gives them in different places.
Experiments:
[1] = system: vancomycin-sensitive Staphylococcus aureus Newman strain; assay: In vitro antibacterial activity assay (MIC, CLSI dilution method); format: cell-based; details: Staphylococcus aureus, 16 h, S. aureus Newman, 37° C.
[2] = system: vancomycin-middle resistant Staphylococcus aureus Mu50 strain; assay: as above; format: cell-based
[3] = Staphylococcus aureus, 16 h, S. aureus Mu50, 37° C., read-out: MIC Mu50
[4] = Staphylococcus aureus, 16 h, read-out: MIC Mu50
[5] = Staphylococcus aureus; S. aureus Mu50, 37° C., 16 h; read-out: MIC Mu50

| SMILES | MIC ([1]; NEWMAN) [µg/mL] | MIC [2, 3] [µg/mL] | MIC [1] [µg/mL] | MIC [2, 4] [µg/mL] | MIC [2, 5] [µg/mL] |
| --- | --- | --- | --- | --- | --- |
| CN[C@H](CC(C)C)C(=O)N[C@H]1C(=O)N[C@@H](CC(N)=O)C(=O)N[C@H]2C(=O)N[C@H]3C(=O)N[C@H](C(=O)NC(C(=O)NCCCN(C)C)c4cc(O)c(CNCCCNC(=O)[C@H](O)[C@@H](O)[C@H](O)[C@H](O)CO)c(O)c4-c4cc3ccc4O)[C@H](O)c3ccc(c(Cl)c3)Oc3cc2cc(c3OC2O[C@H](CO)C(O)C(O)[C@H]2O[C@H]2CC(C)(NCc3ccc(-c4ccc(Cl)cc4)cc3)[C@H](O)C(C)O2)Oc2ccc(cc2Cl)[C@H]1O (stereo partly shown) [Van022] | 1 (≈ 0.5 µM) | 2 (≈ 1 µM) | – | – | – |
| CN[C@H](CC(C)C)C(=O)N[C@H]1C(=O)N[C@@H](CC(N)=O)C(=O)N[C@H]2C(=O)N[C@@H]3C(=O)N[C@H](C(=O)N[C@H](C(=O)NCCCNC(=O)[C@H](O)[C@@H](O)[C@H](O)[C@H](O)CO)c4cc(O)cc(O)c4-c4cc3ccc4O)[C@H](O)c3ccc(c(Cl)c3)Oc3cc2cc(c3OC2O[C@H](CO)C(O)C(O)[C@H]2O[C@H]2CC(C)(NCc3ccc(-c4ccc(Cl)cc4)cc3)[C@H](O)C(C)O2)Oc2ccc(cc2Cl)[C@H]1O (stereo partly shown) [Van023] | – | – | 2 (≈ 1.06 µM) | 4 (≈ 2.12 µM) | – |
| CCCCCCCCCCNC1(C)C[C@H](O[C@H]2C(Oc3c4cc5cc3Oc3ccc(cc3Cl)[C@@H](O)[C@@H](NC(=O)[C@@H](CC(C)C)NC)C(=O)N[C@@H](CC(N)=O)C(=O)N[C@H]5C(=O)N[C@H]3C(=O)N[C@H](C(=O)N[C@H](C(=O)O)c5cc(O)c(CNCCCNC(=O)[C@H](O)[C@@H](O)[C@H](O)[C@H](O)CO)c(O)c5-c5cc3ccc5O)[C@H](O)c3ccc(c(Cl)c3)O4)O[C@H](CO)C(O)C2O)CC(C)[C@H]1O (stereo partly shown) [Van024] | 0.125 (≈ 0.0675 µM) | 0.5 (≈ 0.27 µM) | – | – | – |
| CCCCCCCCCCC(=O)NC1(C)C[C@H](O[C@H]2C(Oc3c4cc5cc3Oc3ccc(cc3Cl)[C@@H](O)[C@@H](NC(=O)[C@@H](CC(C)C)NC)C(=O)N[C@@H](CC(N)=O)C(=O)N[C@H]5C(=O)N[C@H]3C(=O)N[C@H](C(=O)N[C@H](C(=O)O)c5cc(O)c(CNCCCNC(=O)[C@H](O)[C@@H](O)[C@H](O)[C@H](O)CO)c(O)c5-c5cc3ccc5O)[C@H](O)c3ccc(c(Cl)c3)O4)O[C@H](CO)C(O)C2O)CC(C)[C@H]1O (stereo partly shown) [Van025] | 16 (≈ 8.51 µM) | 32 (≈ 17 µM) | – | – | – |
| CCCCCCCCCC(=O)NC1(C)C[C@H](O[C@H]2C(Oc3c4cc5cc3Oc3ccc(cc3Cl)[C@@H](O)[C@@H](NC(=O)[C@@H](CC(C)C)NC)C(=O)N[C@@H](CC(N)=O)C(=O)N[C@H]5C(=O)N[C@H]3C(=O)N[C@H](C(=O)N[C@H](C(=O)O)c5cc(O)c(CNCCCNC(=O)[C@H](O)[C@@H](O)[C@H](O)[C@H](O)CO)c(O)c5-c5cc3ccc5O)[C@H](O)c3ccc(c(Cl)c3)O4)O[C@H](CO)C(O)C2O)CC(C)[C@H]1O (stereo partly shown) [Van026] | 32 (≈ 17.2 µM) | 64 (≈ 34.3 µM) | – | – | – |
| CN[C@H](CC(C)C)C(=O)N[C@H]1C(=O)N[C@@H](CC(N)=O)C(=O)N[C@H]2C(=O)N[C@H]3C(=O)N[C@H](C(=O)N[C@H](C(=O)O)c4cc(O)c(CNCCCNC(=O)[C@H](O)[C@@H](O)[C@H](O)[C@H](O)CO)c(O)c4-c4cc3ccc4O)[C@H](O)c3ccc(c(Cl)c3)Oc3cc2cc(c3OC2O[C@H](CO)C(O)C(O)[C@H]2O[C@@H]2CC(C)[C@@H](O)C(C)(NCc3cccc4ccccc34)C2)Oc2ccc(cc2Cl)[C@H]1O (stereo partly shown) [Van027] | 1 (≈ 0.54 µM) | 4 (≈ 2.16 µM) | – | – | – |
| CN[C@H](CC(C)C)C(=O)N[C@H]1C(=O)N[C@@H](CC(N)=O)C(=O)N[C@H]2C(=O)N[C@H]3C(=O)N[C@H](C(=O)N[C@H](C(=O)O)c4cc(O)c(CNCCCNC(=O)[C@H](O)[C@@H](O)[C@H](O)[C@H](O)CO)c(O)c4-c4cc3ccc4O)[C@H](O)c3ccc(c(Cl)c3)Oc3cc2cc(c3OC2O[C@H](CO)C(O)C(O)[C@H]2O[C@@H]2CC(C)[C@@H](O)C(C)(NCc3ccc(C#C[Si](C)(C)C)cc3)C2)Oc2ccc(cc2Cl)[C@H]1O (stereo partly shown) [Van028] | – | – | 1 (≈ 0.527 µM) | – | 2 (≈ 1.05 µM) |
| C#Cc1ccc(CNC2(C)C[C@H](O[C@H]3C(Oc4c5cc6cc4Oc4ccc(cc4Cl)[C@@H](O)[C@@H](NC(=O)[C@@H](CC(C)C)NC)C(=O)N[C@@H](CC(N)=O)C(=O)N[C@H]6C(=O)N[C@H]4C(=O)N[C@H](C(=O)N[C@H](C(=O)O)c6cc(O)c(CNCCCNC(=O)[C@H](O)[C@@H](O)[C@H](O)[C@H](O)CO)c(O)c6-c6cc4ccc6O)[C@H](O)c4ccc(c(Cl)c4)O5)O[C@H](CO)C(O)C3O)CC(C)[C@H]2O)cc1 (stereo partly shown) [Van029] | 4 (≈ 2.19 µM) | 8 (≈ 4.38 µM) | – | – | – |
| CCCCOc1ccc(CNC2(C)C[C@H](O[C@H]3C(Oc4c5cc6cc4Oc4ccc(cc4Cl)[C@@H](O)[C@@H](NC(=O)[C@@H](CC(C)C)NC)C(=O)N[C@@H](CC(N)=O)C(=O)N[C@H]6C(=O)N[C@H]4C(=O)N[C@H](C(=O)N[C@H](C(=O)O)c6cc(O)c(CNCCCNC(=O)[C@H](O)[C@@H](O)[C@H](O)[C@H](O)CO)c(O)c6-c6cc4ccc6O)[C@H](O)c4ccc(c(Cl)c4)O5)O[C@H](CO)C(O)C3O)CC(C)[C@H]2O)cc1 (stereo partly shown) [Van030] | 1 (≈ 0.534 µM) | 2 (≈ 1.07 µM) | – | – | – |
| CCCCCc1ccc(CNC2(C)C[C@H](O[C@H]3C(Oc4c5cc6cc4Oc4ccc(cc4Cl)[C@@H](O)[C@@H](NC(=O)[C@@H](CC(C)C)NC)C(=O)N[C@@H](CC(N)=O)C(=O)N[C@H]6C(=O)N[C@H]4C(=O)N[C@H](C(=O)N[C@H](C(=O)O)c6cc(O)c(CNCCCNC(=O)[C@H](O)[C@@H](O)[C@H](O)[C@H](O)CO)c(O)c6-c6cc4ccc6O)[C@H](O)c4ccc(c(Cl)c4)O5)O[C@H](CO)C(O)C3O)CC(C)[C@H]2O)cc1 (stereo partly shown) [Van031] | 0.125 (≈ 0.0668 µM) | 0.5 (≈ 0.267 µM) | – | – | – |
| CN[C@H](CC(C)C)C(=O)N[C@H]1C(=O)N[C@@H](CC(N)=O)C(=O)N[C@H]2C(=O)N[C@@H]3C(=O)N[C@H](C(=O)N[C@H](C(=O)O)c4cc(O)c(CNC5C(O)OC(CO)[C@H](O)[C@@H]5O)c(O)c4-c4cc3ccc4O)[C@H](O)c3ccc(c(Cl)c3)Oc3cc2cc(c3O[C@@H]2O[C@H](CO)C(O)C(O)[C@H]2O[C@H]2CC(C)(NCc3ccc(C#C[Si](C)(C)C)cc3)[C@H](O)[C@H](C)O2)Oc2ccc(cc2Cl)[C@H]1O (stereo partly shown) [Van033] | – | – | 0.5 (≈ 0.274 µM) | – | 2 (≈ 1.09 µM) |
| CCCCCCCCCCNC1(C)C[C@H](O[C@@H]2C(O)C(O)[C@@H](CO)O[C@H]2Oc2c3cc4cc2Oc2ccc(cc2Cl)[C@@H](O)[C@@H](NC(=O)[C@@H](CC(C)C)NC)C(=O)N[C@@H](CC(N)=O)C(=O)N[C@H]4C(=O)N[C@@H]2C(=O)N[C@H](C(=O)N[C@H](C(=O)O)c4cc(O)c(CNC5C(O)OC(CO)[C@H](O)[C@@H]5O)c(O)c4-c4cc2ccc4O)[C@H](O)c2ccc(c(Cl)c2)O3)O[C@@H](C)[C@H]1O (stereo partly shown) [Van034] | ≤ 0.0625 | 0.25 (≈ 0.14 µM) | – | – | – |
| C#Cc1ccc(CNC2(C)C[C@H](O[C@@H]3C(O)C(O)[C@@H](CO)O[C@H]3Oc3c4cc5cc3Oc3ccc(cc3Cl)[C@@H](O)[C@@H](NC(=O)[C@@H](CC(C)C)NC)C(=O)N[C@@H](CC(N)=O)C(=O)N[C@H]5C(=O)N[C@@H]3C(=O)N[C@H](C(=O)N[C@H](C(=O)O)c5cc(O)c(CNC6C(O)OC(CO)[C@H](O)[C@@H]6O)c(O)c5-c5cc3ccc5O)[C@H](O)c3ccc(c(Cl)c3)O4)O[C@@H](C)[C@H]2O)cc1 (stereo partly shown) [Van035] | – | – | 2 (≈ 1.14 µM) | 8 (≈ 4.56 µM) | – |
| CCCCCc1ccc(CNC2(C)C[C@H](O[C@@H]3C(O)C(O)[C@@H](CO)O[C@H]3Oc3c4cc5cc3Oc3ccc(cc3Cl)[C@@H](O)[C@@H](NC(=O)[C@@H](CC(C)C)NC)C(=O)N[C@@H](CC(N)=O)C(=O)N[C@H]5C(=O)N[C@@H]3C(=O)N[C@H](C(=O)N[C@H](C(=O)O)c5cc(O)c(CNC6C(O)OC(CO)[C@H](O)[C@@H]6O)c(O)c5-c5cc3ccc5O)[C@H](O)c3ccc(c(Cl)c3)O4)O[C@@H](C)[C@H]2O)cc1 (stereo partly shown) [Van036] | – | – | 0.25 (≈ 0.139 µM) | 0.5 (≈ 0.278 µM) | – |

Source: US10961278B2, “Vancomycin derivative, preparation method, pharmaceutical composition and use thereof” (SHANGHAI INSTITUTE OF MATERIA MEDICA, CHINESE ACADEMY OF …, priority 2016, dated 2021)
